How the values were obtained:
[1] = test system: endotoxin-induced uveitis (EIU); assay: Cell count and total protein concentration in aqueous humor of EIU rats; format: in vivo, Lewis rats
Description: Male Lewis rats ranging from 6-8 weeks old (Charles River, Wilmington, Mass.) were used for these studies. To study the effects of AICAR pretreatment, AICAR and PBS (for placebo treatment) were delivered via intraperitoneal injection of AICAR (50 mg/kg or 100 mg/kg body weight; Sigma) diluted in 150 μl PBS or equal volume of PBS at 6 hours before and at the same time as LPS injection. Four experimental groups of rats were compared: (1) Normal: no treatment (2) AICAR: normal rats treated with AICAR 6 hours before examination; (3) LPS: EIU rats treated with PBS; (4) LPS+AICAR: EIU rats treated with AICAR. Two additional groups of rats were used to study the effects of AICAR (50 mg/kg) given either at the same time as LPS injection or at 6 hours after LPS injection. Aqueous humor was collected by anterior chamber puncture with a 30-gauge needle 24 hours after LPS injection. For cell counting, 1 μl of aqueous humor was diluted with an equal amount of Trypan-blue solution, and the cells were counted with a hematocytometer under a light microscope. A separate sample of aqueous humor was centrifuged at 2500 rpm for 5 minutes at 4° C. and the total protein concentration was measured by Lowry methods using a Bio-Rad protein assay kit (Hercules, Calif.). Aqueous samples were stored on ice until used; cell counts and total protein concentrations were measured on the day of sample collection.

splenic DCs = assay: Splenic DC co-stimulatory molecule expression in EAU mice (FACS); format: in vivo; conditions: AICAR-treated vs non-treated EAU mice; twelve days after immunization
Description: To investigate whether DC maturation was affected by AICAR, splenic DCs were isolated from EAU mice and analyzed for co-stimulatory molecule expression. Specifically, spleen cells from 4 to 5 EAU mice were pooled at twelve days after immunization and incubated with the following monoclonal antibodies: anti-CD11c (N418), CD40 (3/23), CD80 (16-10A1), CD86 (GL-1), I-A^b (AF6-120.1) (Biolegend). Spleen cells were gated on the basis of forward and side scatter profile and propidium iodide or DAPI exclusion. Samples of 1×10^6 cells were analyzed by LSR (Becton Dickinson, Franklin Lakes, N.J.).

SMILES: NC(=O)c1ncn([C@@H]2O[C@H](CO)[C@@H](O)[C@H]2O)c1N [AICAR, 5-aminoimidazole-4-carboxamide-1-β-d-ribofuranoside]
- Total protein concentration in aqueous humor ([1]; AICAR 50 mg/kg pretreatment, 24 h after LPS, LPS only 18.3): 7.9 mg/mL
- Number of infiltrating cells in aqueous humor ([1]; AICAR 50 mg/kg pretreatment, 24 h after LPS, n=11, LPS only 22.0×10^5): 1.4×10^5 cells/ml
- Cell infiltration and protein levels in aqueous humor of AICAR-only-treated rats ([1]; normal rats, AICAR only, n=6): did not show any significant infiltration of cells nor a significant increase in protein levels
- CD40, CD80, CD86 and I-A^b expression on splenic DCs (splenic DCs): no difference

From patent publication US10842806B2, “Methods for treating ocular inflammatory disorders” (Massachusetts Eye and Ear Infirmary, priority 2011, dated 2020)
